Article PMC6406907, “A H2AX–CARP-1 Interaction Regulates Apoptosis Signaling Following DNA Damage” (Cancers, 2019)

Tests used:
Format in all cases: cell-based, human
[1] = test system: CARP-1, phospho-JNK1/2, phospho-H2AX, PARP; experiment: Western blot of CARP-1, phospho-JNK1/2, γH2AX, cleaved PARP in MDA-MB-468; conditions: for CARP-1 and γH2AX increase after knock-down of CARP-1: MDA-MB-468, CARP-1 knock-down; for JNK1/2 and H2AX activation: cells overexpressing myc-His-tagged CARP-1, WB
[2] = test system: HeLa cells; experiment: Comet assay (DNA damage), HeLa; set-up: Olive Tail Moment (Mean) / Tail Moment (Mean): unit not given here; conditions: for percentage of tail DNA and tail moment: 10 μM, 1, 3, 6, 12 h; for Olive Tail Moment (Mean) / Tail Moment (Mean) / %Tail DNA (Mean): 10 µM; for Olive Tail Moment (Mean): control 5.539; for Tail Moment (Mean): control 9.081; for %Tail DNA (Mean): control 28.414, alkaline electrophoresis, Vista Green
Description: (§1) The DNA damage assay was performed using a comet assay kit 96-well plate (Cell Bio Labs, CA, USA) as per the manufacturer’s instructions. Briefly, the cell suspension was mixed with the low-melting agarose at 1:20 ratio and added to the pre-coated 96 well plate. The cells were then subjected to lysis for 1 h, followed by alkaline electrophoresis. The plate was then washed in 70% ethanol and Vista Green DNA dye was added. The comets were visualized in Zeiss LSM780 Confocal microscope. The images were processed using Zeiss ZEN lite software and the comet parameters were measured using Open comet software.
(§2) Adriamycin is well known to induce DNA damage. Given the critical role of CARP-1 in apoptotic signaling by Adriamycin and CFM compounds, and the fact that stress-activated protein kinases (SAPKs) p38 and JNKs are activated in apoptosis signaling by CFM-4.16 [6, 12, 13, 14, 15, 16, 17, 18], we next determined whether CFM-4.16 also provoked DNA damage. We treated MDA-MB-468 and HeLa cells with a 10 μM dose of Adriamycin or CFM-4.16 for 1, 3, 6, and 12 h, followed by assessment of damaged DNA by the comet assay as described in Section 2. The presence of comet-like tails that contain the fragmented cellular DNA is a well-known marker/indicator of apoptosis. We measured the comet parameters such as percentage tail DNA and mean tail moment. […] Of note is the fact that Adriamycin and related anthracyclines intercalate between DNA bases and trap topoisomerase II (TopoII) in the double-strand cleavage form, thus introducing double-strand breaks (DSBs) due to TopoII poisoning. It remains to be clarified whether CFM-4.16 also targets cellular DNA and/or the associated DNA repair complex protein(s) to introduce DNA strand breaks, or activates caspase-activated DNAses to breakdown cellular genomic DNA.
(§3) Figure 2 Adriamycin and CFM-4.16 induce DNA damage. Cells were treated with the noted dose of respective compound for indicated time periods. Mean values for percentage tail DNA content (A,C) and Olive tail moment (B,D) for respective cells from control and treatment periods for each compound were measured using software recommended by the manufacturer of the kit for measurement of DNA damage (Cell Bio Labs, CA, USA). The columns in each chart indicate average values for respective treatment condition; bars, SE; * p ≤ 0.05.
(§4) Table S1. Adriamycin and CFM-4.16 stimulate DNA Damage in a time-dependent manner. MDA-MB-468 and HeLa cells were with noted dose of respective compound for indicated time periods.
(§5) Mean values for % tail DNA, Tail moment, and Olive tail moment for respective cells from control and treatment periods for each compound were measured using software recommended by the manufacturer of the kit for measurement of DNA damage (Cell Bio Labs, San Diego, CA, USA). The p values for each of the parameter are indicated below the mean values in each column for the treatment time period with each compound for both the cell lines.
(§6) Adriamycin (10 µM) CFM-4.16 (10 µM)

[3] = test system: MDA-MB-468 cells; experiment: Comet assay (DNA damage), MDA-MB-468; set-up: Tail Moment (Mean) / Olive Tail Moment (Mean): unit not given here; conditions: for percentage of tail DNA and tail moment: 10 μM, 1, 3, 6, 12 h, MDA-MB-468; for Tail Moment (Mean) / Olive Tail Moment (Mean) / %Tail DNA (Mean): MDA-MB-468, 10 µM; for Tail Moment (Mean): control 0.031056; for Olive Tail Moment (Mean): control 0.286711; for %Tail DNA (Mean): control 2.39052, alkaline electrophoresis, Vista Green
Description: as §1, §2, §3, §4, §5, §6

[4] = test system: MDA-MB-468 cells expressing EGFP or EGFP-CARP-1 (636–650); experiment: Flow cytometric analysis of apoptosis, MDA-MB-468 sublines; conditions: 10 μM, 24 h, EGFP vs EGFP-CARP-1 (636–650)-expressing MDA-MB-468

| Compound | CARP-1 and γH2AX increase after knock-down of CARP-1 [1] | JNK1/2 and H2AX activation [1] | percentage of tail DNA and tail moment [2] | Olive Tail Moment (Mean) ([2]; 1 h) | Tail Moment (Mean) ([2]; 1 h) | %Tail DNA (Mean) ([2]; 1 h) | Olive Tail Moment (Mean) ([2]; 3 h) | Tail Moment (Mean) ([2]; 3 h) | %Tail DNA (Mean) ([2]; 3 h) | Olive Tail Moment (Mean) ([2]; 6 h) | Tail Moment (Mean) ([2]; 6 h) | %Tail DNA (Mean) ([2]; 6 h) | Olive Tail Moment (Mean) ([2]; 12 h) | Tail Moment (Mean) ([2]; 12 h) | %Tail DNA (Mean) ([2]; 12 h) | percentage of tail DNA and tail moment [3] | Tail Moment (Mean) ([3]; 1 h) | Olive Tail Moment (Mean) ([3]; 1 h) | %Tail DNA (Mean) ([3]; 1 h) | Tail Moment (Mean) ([3]; 3 h) | further results |
| --- | --- | --- | --- | --- | --- | --- | --- | --- | --- | --- | --- | --- | --- | --- | --- | --- | --- | --- | --- | --- | --- |
| O=C1N(Cc2ccccc2Cl)c2ccccc2C12NN=C(c1cccc(Cl)c1)S2 (centres unmarked) [CFM-4.16] | abrogated CARP-1 and γH2AX increase | time-dependent stimulation of JNK1/2 and H2AX activation | significantly increased | 10.9 | 16.526 | 27.297% | 15.4 | 26.7 | 34.45% | 32.73 | 47.54 | 53.24% | 41.02 | 76.03 | 69.61% | significantly increased | 0.1504 | 0.7773 | 2.507% | 7.45 | Olive Tail Moment (Mean) ([3]; 3 h): 4.594; %Tail DNA (Mean) ([3]; 3 h): 17.24%; Tail Moment (Mean) ([3]; 6 h): 25.29; Olive Tail Moment (Mean) ([3]; 6 h): 13.06; %Tail DNA (Mean) ([3]; 6 h): 36.18%; Tail Moment (Mean) ([3]; 12 h): 45.02; Olive Tail Moment (Mean) ([3]; 12 h): 24.23; %Tail DNA (Mean) ([3]; 12 h): 55.6%; cells undergoing apoptosis [4]: generally higher percentage of EGFP-expressing cells undergoing apoptosis |
| COc1cccc2c1C(=O)c1c(O)c3c(c(O)c1C2=O)C[C@@](O)(C(=O)CO)C[C@@H]3O[C@H]1C[C@H](N)[C@H](O)[C@H](C)O1 [Adriamycin, doxorubicin, reference compound] | abrogated CARP-1 and γH2AX increase | time-dependent stimulation of JNK1/2 and H2AX activation | significantly increased | 18.8 | 32.09 | 40.8% | 39.9 | 61.8 | 76.74% | 47.9 | 79.11 | 84.98% | 60.49 | 102.2 | 93.4% | significantly increased | 3.462 | 2.898 | 18.75% | 14.01 | levels of CARP-1 ([1]; MDA-MB-468, single agent (JNK-IN-8 at 5 μM), WB): elevated levels of CARP-1; Olive Tail Moment (Mean) ([3]; 3 h): 9.946; %Tail DNA (Mean) ([3]; 3 h): 25.75%; Tail Moment (Mean) ([3]; 6 h): 24.19; Olive Tail Moment (Mean) ([3]; 6 h): 14.06; %Tail DNA (Mean) ([3]; 6 h): 45.55%; Tail Moment (Mean) ([3]; 12 h): 43.07; Olive Tail Moment (Mean) ([3]; 12 h): 20.46; %Tail DNA (Mean) ([3]; 12 h): 63.02%; cells undergoing apoptosis [4]: generally higher percentage of EGFP-expressing cells undergoing apoptosis |
